Values belong to the molecule of their own block, whether it stands above or below them. The source made the active and inactive calls.
Key:
[1] = biological target: T1, Oxysterols receptor LXR-beta (Homo sapiens, UniProt P55055); assay type: functional, cell-based;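 also: Cell-based luminescence dose-response assay of agonist activity at LXR, run as a confirmatory counterscreen to a daf-12 agonist screen; HEK293 cells with Gal4-LXR fusion and GAL4-driven luciferase reporter; agonist potency from rising luciferase signal of a Gal4-LXR reporter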
T1 sequence (P55055 whole entry): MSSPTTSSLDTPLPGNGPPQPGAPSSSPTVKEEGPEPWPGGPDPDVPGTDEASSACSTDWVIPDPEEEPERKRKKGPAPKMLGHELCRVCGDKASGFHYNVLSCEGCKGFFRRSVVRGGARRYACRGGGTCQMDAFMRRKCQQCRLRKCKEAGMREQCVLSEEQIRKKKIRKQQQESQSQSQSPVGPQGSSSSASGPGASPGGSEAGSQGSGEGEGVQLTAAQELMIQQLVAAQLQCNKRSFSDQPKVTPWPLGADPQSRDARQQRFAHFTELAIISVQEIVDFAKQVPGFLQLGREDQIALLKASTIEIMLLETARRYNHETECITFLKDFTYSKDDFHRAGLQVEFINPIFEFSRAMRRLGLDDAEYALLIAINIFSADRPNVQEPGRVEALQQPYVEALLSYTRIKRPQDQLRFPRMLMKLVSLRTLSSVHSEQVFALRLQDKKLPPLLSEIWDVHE

Protein skinhead-1 = biological target: T2, Protein skinhead-1 (Caenorhabditis elegans, UniProt P34707); assay type: functional
T2 sequence (P34707 whole entry): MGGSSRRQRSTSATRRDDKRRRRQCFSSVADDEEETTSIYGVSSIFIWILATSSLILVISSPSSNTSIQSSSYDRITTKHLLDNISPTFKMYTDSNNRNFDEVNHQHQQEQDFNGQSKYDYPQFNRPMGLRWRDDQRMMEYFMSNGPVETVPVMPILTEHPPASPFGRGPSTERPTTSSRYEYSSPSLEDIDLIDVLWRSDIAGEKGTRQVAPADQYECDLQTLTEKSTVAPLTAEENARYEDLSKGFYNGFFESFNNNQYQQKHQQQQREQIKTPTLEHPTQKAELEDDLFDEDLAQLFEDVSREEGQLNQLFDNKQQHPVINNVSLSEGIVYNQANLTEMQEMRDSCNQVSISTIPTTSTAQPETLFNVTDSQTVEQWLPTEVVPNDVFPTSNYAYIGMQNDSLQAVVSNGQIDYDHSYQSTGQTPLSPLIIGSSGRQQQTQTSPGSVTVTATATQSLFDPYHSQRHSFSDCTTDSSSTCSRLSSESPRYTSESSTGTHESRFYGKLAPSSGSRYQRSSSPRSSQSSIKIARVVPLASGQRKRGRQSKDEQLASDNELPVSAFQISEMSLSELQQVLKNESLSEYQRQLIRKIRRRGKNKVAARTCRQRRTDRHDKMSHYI

[2] = biological target: T3, Zinc finger protein mex-5 (Caenorhabditis elegans, UniProt Q9XUB2); test: MEX-5/TCR-2 RNA interaction inhibitors, dose response, biochemical, C. elegans, fluorescence polarization (AID 1960)
T3 sequence (Q9XUB2 whole entry): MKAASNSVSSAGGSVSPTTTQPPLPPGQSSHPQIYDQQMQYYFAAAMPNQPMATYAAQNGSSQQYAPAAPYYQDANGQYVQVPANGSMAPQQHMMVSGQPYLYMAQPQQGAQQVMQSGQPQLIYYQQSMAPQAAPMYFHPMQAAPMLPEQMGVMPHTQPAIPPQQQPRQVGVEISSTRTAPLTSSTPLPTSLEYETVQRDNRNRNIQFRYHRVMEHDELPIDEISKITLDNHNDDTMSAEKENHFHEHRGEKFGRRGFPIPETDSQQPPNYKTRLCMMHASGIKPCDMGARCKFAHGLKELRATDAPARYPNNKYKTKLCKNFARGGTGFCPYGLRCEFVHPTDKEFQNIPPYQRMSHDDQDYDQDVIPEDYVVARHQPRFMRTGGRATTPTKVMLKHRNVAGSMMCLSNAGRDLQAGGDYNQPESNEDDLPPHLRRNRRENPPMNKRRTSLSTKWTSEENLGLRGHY

[3] = biological target: T4, RNA-binding protein pos-1 (Caenorhabditis elegans, UniProt G5EF15); test: inhibitors of POS-1/mex-3 RNA binding, dose response, biochemical, fluorescence polarization (AID 1964);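 also: purified POS-1 fused to maltose binding protein made in E. coli; potency of compounds blocking POS-1 binding to fluorescent RNA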
T4 sequence (G5EF15 whole entry): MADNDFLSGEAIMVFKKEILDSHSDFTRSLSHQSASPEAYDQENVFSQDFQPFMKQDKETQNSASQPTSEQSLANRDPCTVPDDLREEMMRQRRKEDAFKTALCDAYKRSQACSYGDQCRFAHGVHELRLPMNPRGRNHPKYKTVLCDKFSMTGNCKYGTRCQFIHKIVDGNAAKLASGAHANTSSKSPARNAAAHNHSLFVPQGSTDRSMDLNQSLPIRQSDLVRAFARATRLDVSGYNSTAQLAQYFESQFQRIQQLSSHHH

cells [4] = test: cells
[5] = biological target: T5, Nuclear receptor subfamily 0 group B member 1 (Homo sapiens, UniProt P51843); assay type: functional, cell-based;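 also: HEK293T cells transfected with SF-1 and DAX-1 plus StAR promoter luciferase reporter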
T5 sequence (P51843 whole entry): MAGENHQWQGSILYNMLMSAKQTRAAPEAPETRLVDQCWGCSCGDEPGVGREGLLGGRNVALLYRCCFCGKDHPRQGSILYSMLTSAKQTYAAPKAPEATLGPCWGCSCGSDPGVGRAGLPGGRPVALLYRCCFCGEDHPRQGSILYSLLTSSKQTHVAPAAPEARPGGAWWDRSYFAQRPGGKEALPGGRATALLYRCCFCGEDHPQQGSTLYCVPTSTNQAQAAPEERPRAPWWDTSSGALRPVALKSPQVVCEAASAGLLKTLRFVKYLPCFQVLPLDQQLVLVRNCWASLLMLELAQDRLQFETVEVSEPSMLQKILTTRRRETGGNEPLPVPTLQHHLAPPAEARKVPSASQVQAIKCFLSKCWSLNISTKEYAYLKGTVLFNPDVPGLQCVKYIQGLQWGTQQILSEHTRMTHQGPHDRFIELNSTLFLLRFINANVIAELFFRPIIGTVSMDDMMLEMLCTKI

[6] = biological target: Luciferin 4-monooxygenase (Photinus pyralis, UniProt P08659); test: firefly luciferase enzyme inhibitors, dose response, biochemical, luminescence (AID 1891)
[7] = Luminescence Cell-Based Dose Confirmation HTS to Identify Inhibitors of Platelet Dense Granule Release. [Related pubchem assays: 1663 (Primary HTS), 1678 (Summary of Project)]; assay type: functional
cells [8] = assay type: functional, cell-based
Albumin = Albumin (Bos taurus, UniProt P02769); test: Counterscreen for inhibitors of T-cell receptor (TCR)-CD3 interaction: Fluorescence-based biochemical high throughput dose response assay to identify inhibitors of T-cell receptor (TCR)-CD3 interaction using a TAMRA-labeled BSA probe.; assay type: functional
Caspase-6 = biological target: T6, Caspase-6 (Homo sapiens, UniProt P55212); test: human caspase-6 inhibitors, dose response, biochemical, VEID-R110 fluorescence, cherry-pick (AID 720632)
T6 sequence (P55212 whole entry): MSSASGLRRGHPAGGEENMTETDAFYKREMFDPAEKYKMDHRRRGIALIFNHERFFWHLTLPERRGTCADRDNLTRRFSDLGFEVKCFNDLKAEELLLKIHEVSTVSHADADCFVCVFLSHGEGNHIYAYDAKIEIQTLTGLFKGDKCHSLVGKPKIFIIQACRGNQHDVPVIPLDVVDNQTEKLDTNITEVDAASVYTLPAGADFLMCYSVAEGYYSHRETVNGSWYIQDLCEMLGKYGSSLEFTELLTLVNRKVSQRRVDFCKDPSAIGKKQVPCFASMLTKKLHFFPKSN

[9] = biological target: Peroxisome proliferator-activated receptor gamma/Nuclear receptor coactivator 1 (Homo sapiens, UniProt P37231); assay type: functional;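 also: agonist potency as compounds enhance coactivator SRC-1 recruitment to PPARgamma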
[10] = biological target: Peroxisome proliferator-activated receptor gamma/Nuclear receptor coactivator 3 (Homo sapiens, UniProt P37231); assay type: functional;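 also: agonist potency for raising coactivator recruitment to the receptor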
[11] = biological target: Peroxisome proliferator-activated receptor gamma/Nuclear receptor coactivator 2 (Homo sapiens, UniProt P37231); assay type: functional;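 also: agonist potency for raising coactivator recruitment to the receptor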
[12] = biological target: DNA dC->dU-editing enzyme APOBEC-3G (Homo sapiens, UniProt Q9HC16); test: Dose Response confirmation of small molecule APOBEC3G DNA Deaminase Inhibitors via a fluorescence-based single-stranded DNA deaminase assay. [Related pubchem assays (depositor defined):AID493012, AID493028]; assay type: functional
ORF 73 = biological target: T7, ORF 73 (Human herpesvirus 8, UniProt O40947); test: inhibitors of C-LANA binding to LBS DNA, dose response, biochemical, fluorescence polarization, cherry-picked samples (AID 504725); design: species or system Human gammaherpesvirus 8;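 also: fluorescence polarization of a labeled DNA duplex reporting LANA DNA binding; potency is for inhibitors that block LANA binding to the DNA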
T7 sequence (O40947 whole entry): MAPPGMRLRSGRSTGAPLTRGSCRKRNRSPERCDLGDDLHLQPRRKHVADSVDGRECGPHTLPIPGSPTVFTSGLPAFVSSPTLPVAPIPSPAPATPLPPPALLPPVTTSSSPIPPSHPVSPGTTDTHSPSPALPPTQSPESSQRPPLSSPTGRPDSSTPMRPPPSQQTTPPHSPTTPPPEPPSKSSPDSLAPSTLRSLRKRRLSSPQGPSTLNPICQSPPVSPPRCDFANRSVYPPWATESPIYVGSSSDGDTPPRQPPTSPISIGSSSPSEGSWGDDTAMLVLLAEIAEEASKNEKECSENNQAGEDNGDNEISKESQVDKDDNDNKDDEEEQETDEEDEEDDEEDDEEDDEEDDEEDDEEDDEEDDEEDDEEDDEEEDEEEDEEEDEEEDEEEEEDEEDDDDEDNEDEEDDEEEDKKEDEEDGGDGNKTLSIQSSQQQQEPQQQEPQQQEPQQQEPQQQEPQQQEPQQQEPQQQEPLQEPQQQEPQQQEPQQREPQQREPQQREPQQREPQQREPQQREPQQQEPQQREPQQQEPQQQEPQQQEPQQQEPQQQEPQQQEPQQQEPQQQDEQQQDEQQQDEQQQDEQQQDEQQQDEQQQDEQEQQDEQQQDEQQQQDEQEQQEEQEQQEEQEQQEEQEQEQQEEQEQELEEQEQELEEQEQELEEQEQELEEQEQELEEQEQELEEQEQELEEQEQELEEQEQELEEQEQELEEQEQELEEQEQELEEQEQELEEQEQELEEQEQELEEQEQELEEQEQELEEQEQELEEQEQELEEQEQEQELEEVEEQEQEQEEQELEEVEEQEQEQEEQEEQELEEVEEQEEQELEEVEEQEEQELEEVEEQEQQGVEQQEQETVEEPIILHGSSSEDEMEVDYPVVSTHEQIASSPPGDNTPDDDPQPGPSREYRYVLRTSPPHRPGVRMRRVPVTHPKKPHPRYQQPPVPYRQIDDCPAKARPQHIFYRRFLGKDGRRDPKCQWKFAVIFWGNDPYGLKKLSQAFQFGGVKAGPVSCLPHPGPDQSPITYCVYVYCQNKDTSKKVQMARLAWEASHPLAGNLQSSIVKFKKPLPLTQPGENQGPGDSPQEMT

Cytochrome P450 3A4 = Cytochrome P450 3A4 (Homo sapiens, UniProt P08684); details: Potency;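 also: confirmatory qHTS run detecting inhibitors and substrates of CYP3A4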
[13] = MC4R antagonists, dose response, counter-screen for LGR2 antagonist project, cell-based, plate reader, cherry pick (AID 743444); assay type: functional;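 also: transfected HEK 293 cells stimulated with alpha-MSH peptide; potency of inhibitors of the alpha-MSH evoked signal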
[14] = HepG2 cell cytotoxicity, dose response, cytotoxicity control, plate reader, cherry-pick, antagonist series (AID 743416); assay type: functional, cell-based
[15] = LGR2 antagonists, dose response, cell-based, HEK293, CRE-luciferase reporter, cherry pick, set 2 (AID 743343); assay type: functional;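 also: transfected cells were stimulated with diluted bursicon conditioned medium after compound addition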
[16] = A549 cell cytotoxicity, dose response, cytotoxicity control, plate reader, cherry-pick, antagonist series (AID 743412); assay type: functional, cell-based

Peroxisome proliferator-activated receptor gamma/Nuclear receptor coactivator 1, sequence (P37231 whole entry): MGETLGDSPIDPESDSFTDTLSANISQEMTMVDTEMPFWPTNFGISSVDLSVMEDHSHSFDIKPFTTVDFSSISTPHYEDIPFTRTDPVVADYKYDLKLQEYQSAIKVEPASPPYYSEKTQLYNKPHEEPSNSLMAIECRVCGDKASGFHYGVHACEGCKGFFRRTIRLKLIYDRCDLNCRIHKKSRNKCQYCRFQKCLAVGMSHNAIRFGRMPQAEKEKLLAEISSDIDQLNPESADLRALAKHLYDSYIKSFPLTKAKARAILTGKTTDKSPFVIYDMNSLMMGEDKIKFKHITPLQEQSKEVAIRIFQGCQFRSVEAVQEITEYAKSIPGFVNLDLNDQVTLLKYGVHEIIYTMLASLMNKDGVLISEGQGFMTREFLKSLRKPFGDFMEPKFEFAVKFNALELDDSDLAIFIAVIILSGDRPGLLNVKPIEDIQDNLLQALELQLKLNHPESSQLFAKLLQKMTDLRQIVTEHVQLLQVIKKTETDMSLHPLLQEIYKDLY
Peroxisome proliferator-activated receptor gamma/Nuclear receptor coactivator 1, sequence (Q15788 whole entry, further chain): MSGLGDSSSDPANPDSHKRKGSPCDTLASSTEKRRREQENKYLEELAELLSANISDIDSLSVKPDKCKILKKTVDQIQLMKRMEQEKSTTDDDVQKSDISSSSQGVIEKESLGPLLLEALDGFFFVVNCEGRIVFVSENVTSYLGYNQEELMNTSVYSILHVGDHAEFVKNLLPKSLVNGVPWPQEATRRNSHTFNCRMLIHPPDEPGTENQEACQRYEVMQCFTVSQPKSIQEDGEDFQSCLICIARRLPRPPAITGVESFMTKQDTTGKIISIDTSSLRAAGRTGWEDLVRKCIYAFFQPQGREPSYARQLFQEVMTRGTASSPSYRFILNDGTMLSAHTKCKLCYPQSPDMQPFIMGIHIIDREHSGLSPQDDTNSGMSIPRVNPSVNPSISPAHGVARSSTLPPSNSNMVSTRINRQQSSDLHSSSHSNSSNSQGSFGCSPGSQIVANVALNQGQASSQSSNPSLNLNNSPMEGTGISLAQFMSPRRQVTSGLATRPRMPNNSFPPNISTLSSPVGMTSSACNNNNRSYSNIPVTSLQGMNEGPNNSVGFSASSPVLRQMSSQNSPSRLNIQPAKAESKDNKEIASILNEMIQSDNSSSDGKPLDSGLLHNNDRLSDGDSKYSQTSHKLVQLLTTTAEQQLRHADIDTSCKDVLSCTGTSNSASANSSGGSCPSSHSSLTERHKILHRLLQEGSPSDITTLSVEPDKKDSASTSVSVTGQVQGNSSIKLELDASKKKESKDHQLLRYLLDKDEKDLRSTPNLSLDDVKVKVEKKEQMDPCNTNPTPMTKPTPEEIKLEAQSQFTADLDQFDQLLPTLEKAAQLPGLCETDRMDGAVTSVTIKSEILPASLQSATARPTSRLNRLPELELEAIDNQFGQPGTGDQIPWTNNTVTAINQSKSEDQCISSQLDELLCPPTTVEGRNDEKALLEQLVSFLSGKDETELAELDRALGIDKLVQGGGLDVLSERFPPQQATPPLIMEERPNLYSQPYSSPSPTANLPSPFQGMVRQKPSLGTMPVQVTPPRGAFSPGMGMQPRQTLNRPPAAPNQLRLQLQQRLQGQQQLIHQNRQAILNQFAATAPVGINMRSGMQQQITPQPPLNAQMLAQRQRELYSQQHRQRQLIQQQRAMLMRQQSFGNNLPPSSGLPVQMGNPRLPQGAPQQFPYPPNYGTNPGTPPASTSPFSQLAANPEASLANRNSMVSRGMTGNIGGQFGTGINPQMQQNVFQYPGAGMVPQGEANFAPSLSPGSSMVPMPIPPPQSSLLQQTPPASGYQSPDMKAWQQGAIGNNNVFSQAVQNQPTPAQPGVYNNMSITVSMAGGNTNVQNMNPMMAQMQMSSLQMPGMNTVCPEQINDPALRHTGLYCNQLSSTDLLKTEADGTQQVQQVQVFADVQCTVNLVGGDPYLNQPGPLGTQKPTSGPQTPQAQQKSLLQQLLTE
Peroxisome proliferator-activated receptor gamma/Nuclear receptor coactivator 2, sequence (P37231 whole entry): as the sequence (P37231 whole entry) above
Peroxisome proliferator-activated receptor gamma/Nuclear receptor coactivator 2, sequence (Q15596 whole entry, further chain): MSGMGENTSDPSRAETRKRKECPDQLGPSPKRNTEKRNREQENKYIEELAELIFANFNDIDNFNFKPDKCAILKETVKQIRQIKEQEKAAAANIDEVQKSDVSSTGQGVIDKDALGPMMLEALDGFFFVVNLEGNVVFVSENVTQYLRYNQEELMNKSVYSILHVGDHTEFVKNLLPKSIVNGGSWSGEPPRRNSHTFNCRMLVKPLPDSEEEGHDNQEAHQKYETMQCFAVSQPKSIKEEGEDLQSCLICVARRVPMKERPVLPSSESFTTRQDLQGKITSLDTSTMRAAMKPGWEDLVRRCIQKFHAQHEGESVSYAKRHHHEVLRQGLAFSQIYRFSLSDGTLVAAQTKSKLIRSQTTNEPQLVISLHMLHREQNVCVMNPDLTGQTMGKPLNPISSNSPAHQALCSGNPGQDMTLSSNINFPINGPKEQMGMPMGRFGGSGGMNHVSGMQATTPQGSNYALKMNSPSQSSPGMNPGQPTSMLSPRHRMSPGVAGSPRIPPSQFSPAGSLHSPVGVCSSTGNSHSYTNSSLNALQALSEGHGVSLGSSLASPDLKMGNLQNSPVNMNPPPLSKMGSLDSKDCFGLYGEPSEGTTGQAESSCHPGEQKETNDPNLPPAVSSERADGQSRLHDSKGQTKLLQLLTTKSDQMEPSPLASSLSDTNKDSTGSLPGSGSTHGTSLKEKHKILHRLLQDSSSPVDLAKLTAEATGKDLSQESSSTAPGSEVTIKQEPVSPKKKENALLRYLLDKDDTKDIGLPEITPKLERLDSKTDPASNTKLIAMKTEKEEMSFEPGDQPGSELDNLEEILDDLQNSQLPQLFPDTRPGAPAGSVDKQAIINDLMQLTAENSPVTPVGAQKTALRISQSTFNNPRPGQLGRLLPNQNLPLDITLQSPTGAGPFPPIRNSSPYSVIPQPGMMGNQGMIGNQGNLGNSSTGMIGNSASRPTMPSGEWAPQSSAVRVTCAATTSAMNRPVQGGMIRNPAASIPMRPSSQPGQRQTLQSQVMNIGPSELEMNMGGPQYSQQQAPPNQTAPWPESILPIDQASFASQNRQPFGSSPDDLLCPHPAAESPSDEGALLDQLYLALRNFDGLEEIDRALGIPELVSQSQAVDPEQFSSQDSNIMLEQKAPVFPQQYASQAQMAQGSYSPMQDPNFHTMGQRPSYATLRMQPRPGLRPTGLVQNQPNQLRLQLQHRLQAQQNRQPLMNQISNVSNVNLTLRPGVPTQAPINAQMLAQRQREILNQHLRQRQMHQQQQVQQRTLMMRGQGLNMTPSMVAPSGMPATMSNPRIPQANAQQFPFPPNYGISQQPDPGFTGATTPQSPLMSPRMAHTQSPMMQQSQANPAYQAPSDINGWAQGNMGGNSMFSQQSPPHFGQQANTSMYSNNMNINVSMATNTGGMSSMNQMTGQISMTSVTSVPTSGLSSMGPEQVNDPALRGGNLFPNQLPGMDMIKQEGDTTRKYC
Albumin, sequence (P02769 whole entry): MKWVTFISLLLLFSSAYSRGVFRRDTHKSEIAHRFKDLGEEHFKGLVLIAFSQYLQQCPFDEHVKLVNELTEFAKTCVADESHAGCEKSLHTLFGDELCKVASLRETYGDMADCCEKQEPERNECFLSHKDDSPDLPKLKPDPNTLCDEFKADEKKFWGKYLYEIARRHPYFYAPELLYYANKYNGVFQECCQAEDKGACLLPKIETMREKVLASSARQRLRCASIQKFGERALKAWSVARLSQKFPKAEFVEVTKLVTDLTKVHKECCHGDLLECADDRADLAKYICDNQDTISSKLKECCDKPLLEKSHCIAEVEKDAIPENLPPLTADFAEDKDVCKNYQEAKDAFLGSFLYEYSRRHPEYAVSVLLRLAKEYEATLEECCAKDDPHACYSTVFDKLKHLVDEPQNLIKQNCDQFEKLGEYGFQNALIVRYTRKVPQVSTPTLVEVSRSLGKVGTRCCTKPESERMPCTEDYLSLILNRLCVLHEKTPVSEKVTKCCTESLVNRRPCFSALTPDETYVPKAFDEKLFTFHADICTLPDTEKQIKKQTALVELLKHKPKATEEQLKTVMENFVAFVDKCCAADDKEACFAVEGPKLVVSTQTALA
Cytochrome P450 3A4, sequence (P08684 whole entry): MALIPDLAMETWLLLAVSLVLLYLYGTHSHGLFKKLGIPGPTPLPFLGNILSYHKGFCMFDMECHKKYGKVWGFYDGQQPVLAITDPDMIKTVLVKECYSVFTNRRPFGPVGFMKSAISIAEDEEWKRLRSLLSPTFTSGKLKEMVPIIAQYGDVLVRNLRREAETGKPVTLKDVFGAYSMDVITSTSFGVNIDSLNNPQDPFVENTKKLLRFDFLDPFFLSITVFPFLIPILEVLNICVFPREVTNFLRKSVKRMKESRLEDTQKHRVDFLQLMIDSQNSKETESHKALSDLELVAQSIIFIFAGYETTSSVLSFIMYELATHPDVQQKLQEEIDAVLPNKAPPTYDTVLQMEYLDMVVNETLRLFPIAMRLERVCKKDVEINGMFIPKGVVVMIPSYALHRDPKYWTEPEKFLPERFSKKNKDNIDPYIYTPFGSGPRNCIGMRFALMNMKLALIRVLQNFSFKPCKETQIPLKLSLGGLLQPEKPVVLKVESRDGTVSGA

Compound: O=C(c1cccs1)c1ccc(-c2cccs2)s1
- EC50 [1]: > 67.5 µM (inactive)
- IC50 (Protein skinhead-1): 26.5 µM (active)
- EC50 [2]: > 300 µM (not active)
- EC50 [3]: 215 µM (active)
- EC50 (cells [4]): > 67.5 µM (inactive)

Compound: O=C(/C=C/Nc1ccc(F)cc1F)c1ccco1
- IC50 [5]: > 67.5 µM (inactive)
- IC50 (Protein skinhead-1): 17 µM (active)
- EC50 [6]: 0.812 µM (active)
- EC50 [7]: 4.36 µM (active)
- IC50 (cells [8]): > 67.5 µM (inactive)

- IC50 (Albumin): > 94 µM (inactive)
- AC50 (Caspase-6): 1.2 µM (active)
Compound: O=C(NNC(=O)c1ccccc1F)c1cccc(-n2cccc2)c1

- EC50 [9]: > 79.4 µM (not active)
- EC50 [10]: > 79.4 µM (not active)
- EC50 [11]: > 79.4 µM (not active)
Compound: COc1ccc(Cn2c(-c3ccc(C)cc3)nc3c(c(=O)c4ccccc4n3C)c2=O)cc1

Compound: COCCn1c(C)cc(C(=O)CN2C(=O)NC3(CCCCCC3)C2=O)c1C
- IC50 [5]: > 67.5 µM (inactive)
- IC50 (cells [8]): > 67.5 µM (inactive)

- IC50 (Albumin): > 94 µM (inactive)
Compound: CC(=O)NNC(=S)NC(=O)c1ccc(C)cc1

- EC50 [9]: > 79.4 µM (not active)
- EC50 [10]: > 79.4 µM (not active)
- EC50 [11]: > 79.4 µM (not active)
Compound: Cc1ccc(OCC(=O)NNC(=O)C(=O)NC(C)(C)C)cc1

Compound: CCN(CC)c1ccc(NC(=O)c2ccccn2)cc1S(=O)(=O)Nc1ccccc1OC
- IC50 [12]: 69.2 µM (active)

- AC50 (ORF 73): 32.2 µM (active)
Compound: CCn1c(SCc2nc(O)c3c(C)c(C(=O)O)sc3n2)nc2ccccc21

- EC50 [9]: > 79.4 µM (not active)
- EC50 [10]: > 79.4 µM (not active)
- EC50 [11]: > 79.4 µM (not active)
Compound: CCOc1ccc(NC2=NN=C(c3cc(C)n(CC4CCCO4)c3C)CS2)cc1 (configuration not stated)

Compound: COc1ccc(-c2cc(=O)c3cc(OC)ccc3o2)cc1 [6,4'-DIMETHOXYFLAVONE]
- AC50 (Cytochrome P450 3A4): 3.16 µM (inconclusive)
- IC50 [5]: > 67.5 µM (inactive)
- IC50 (cells [8]): > 67.5 µM (inactive)

Compound: Cc1ccc2[nH]c(CSc3nc(C)cc(C)c3C#N)nc2c1
- EC50 [1]: > 67.5 µM (inactive)
- EC50 (cells [4]): > 67.5 µM (inactive)

Compound: CC(C)c1nnc(NC(=O)c2ccc3c(c2)OCO3)s1
- IC50 [5]: > 0.278 µM (active)
- AC50 [13]: 5.43 µM (active)
- AC50 [14]: > 52 µM (inactive)
- AC50 [15]: 4.95 µM (active)
- AC50 [16]: > 52 µM (inactive)
- IC50 (cells [8]): > 67.6 µM (inactive)
